In patent US12378250B2, “Tricyclic compound as IRAK4 inhibitor” (KOREA RESEARCH INSTITUTE OF CHEMICAL TECHNOLOGY, priority 2018, dated 2025) one finds inhibition and IC50 data, which are given here for 19 molecules.

Broadly, the inhibition is the share of the control response that was lost under treatment. A lower inhibition goes with a response near the control. The term IC50 denotes the point on the concentration scale where inhibition reaches its midpoint. A high value points to weaker potency.

For the assay, the target named is T1, IRAK4 enzyme (Homo sapiens, UniProt Q9NWZ3).
T1 sequence (Q9NWZ3 1-460): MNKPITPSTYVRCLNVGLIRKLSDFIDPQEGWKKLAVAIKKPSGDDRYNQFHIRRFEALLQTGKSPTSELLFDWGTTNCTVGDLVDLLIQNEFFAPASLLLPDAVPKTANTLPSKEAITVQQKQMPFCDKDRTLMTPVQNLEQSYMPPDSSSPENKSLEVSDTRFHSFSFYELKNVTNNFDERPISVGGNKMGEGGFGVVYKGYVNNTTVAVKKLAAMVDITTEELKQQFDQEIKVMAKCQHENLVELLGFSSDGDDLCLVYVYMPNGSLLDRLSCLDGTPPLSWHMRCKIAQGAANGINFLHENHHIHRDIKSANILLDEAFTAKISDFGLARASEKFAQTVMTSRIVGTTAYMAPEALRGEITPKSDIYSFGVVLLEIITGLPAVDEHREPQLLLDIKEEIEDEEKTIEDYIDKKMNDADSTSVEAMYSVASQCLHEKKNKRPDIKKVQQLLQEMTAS
As to the kind of experiment: IRAK4 enzyme inhibition degree (bead-based kinase assay, peptide substrate BMKC-2, 100 μM ATP). It counts as biochemical. The following applies: for inhibition at 1 µM: compound 1 μM. The procedure: 2.5 μl of a compound diluted to 4-fold of a final concentration was put into a 384-well white plate (low volume). 2.5 μl of 0.4 ng/μl IRAK4 enzyme was added thereto, and the resulting mixture was totally reacted for 10 minutes. 5 μl of a mixed liquid of a 6 μM peptide substrate (BMKC-2) and 100 μM ATP was added thereto, the resulting mixture was reacted at room temperature for 60 minutes, then 2.5 μl of 10 mM EDTA was added thereto, and the resulting mixture was reacted again for 10 minutes. 40 nM anti-phospho Thr antibody was aliquoted to 2.5 μl each, 5 μl of a mixed solution of a 160 μl/ml acceptor bead and a donor bead was added thereto, and then the resulting mixture was reacted at room temperature for 60 minutes. Fluorescence signals were measured using a bead experimental apparatus (Fusion alpha-FP Microplate Reader, Perkin Elmer Inc.).
From the detected signal, an activity inhibition rate [% inhibition degree=(the average value of a compound−the average value of a negative control)/(the average value of a positive control−the average value of a negative control)×100] was calculated, and is shown in [Table 1]. Further, a % inhibition degree of the compound at each concentration was obtained, and then a 50% inhibition concentration (IC50 value) was analyzed by a non-linear regression analysis.

Turning to `COC(=O)c1ccc2c(c1)[nH]c1nc(-c3cccc([N+](=O)[O-])c3)nc(N[C@H]3CC[C@H](N4CCOCC4)CC3)c12` [Compound 11b, methyl 4-((trans-4-morpholinocyclohexyl)amino)-2-(3-nitrophenyl)-9H-pyrimido[4,5-b]indole-7-carboxylate], testing at 1 µM gave an inhibition of 10%.

Consider `c1nc(N[C@H]2CC[C@H](N3CCOCC3)CC2)c2c(n1)[nH]c1ccc(-c3nnc[nH]3)cc12` [Compound 6baa, N-(trans-4-morpholinocyclohexyl)-6-(4H-1,2,4-triazol-3-yl)-9H-pyrimido[4,5-b]indole-4-amine], for which inhibition was half-maximal at 308 nM (IC50) and at 1 µM the inhibition was 70%.

For `O=c1[nH]nc(-c2ccc3[nH]c4ncnc(N[C@H]5CC[C@H](N6CCOCC6)CC5)c4c3c2)[nH]1` [Compound 6baf, 5-(4-((trans-4-morpholinocyclohexyl)amino)-9H-pyrimido[4,5-b]indol-6-yl)-2,4-dihydro-3H-1,2,4-triazole-3-one], the IC50 worked out at 509 nM and the inhibition at 1 µM is 70%.

`N#Cc1cc(F)cc(-c2ccc3[nH]c4ncnc(N[C@H]5CC[C@H](N6CCOCC6)CC5)c4c3c2)c1` [Compound 6aap, 3-fluoro-5-(4-((trans-4-morpholinocyclohexyl)amino)-9H-pyrimido[4,5-b]indol-6-yl) benzonitrile] gave an IC50 of 780 nM and an inhibition at 1 µM of 56%.

Consider `Cn1cnnc1-c1ccc2[nH]c3ncnc(N[C@H]4CC[C@H](N5CCOCC5)CC4)c3c2c1` [Compound 6bac, 6-(4-methyl-4H-1,2,4-triazol-3-yl)-N-(trans-4-morpholinocyclohexyl)-9H-pyrimido[4,5-b]indole-4-amine], for which the concentration for half-maximal inhibition (IC50) was found to be 842 nM and the inhibition at 1 µM stood at 60%.

Take `N#Cc1cncc(-c2ccc3[nH]c4ncnc(N[C@H]5CC[C@H](N6CCOCC6)CC5)c4c3c2)c1` [Compound 6aao, 5-(4-((trans-4-morpholinocyclohexyl)amino)-9H-pyrimido[4,5-b]indol-6-yl) nicotinonitrile]: the half-maximal inhibitory concentration (IC50) was 63 nM and the inhibition at 1 µM is 74%.

Molecule `c1nc(N[C@H]2CC[C@H](N3CCOCC3)CC2)c2c(n1)[nH]c1ccc(-c3nnc4n3CCC4)cc12` [Compound 6bad, 6-(6,7-dihydro-5H-pyrrolo[2,1-c][1,2,4]triazol-3-yl)-N-(trans-4-morpholinocyclohexyl)-9H-pyrimido[4,5-b]indole-4-amine] displayed an IC50 of 928 nM and an inhibition at 1 µM of 52%.

With `Cn1cc(-c2ccc3[nH]c4ncnc(NCCCN5CCOCC5)c4c3c2)cn1` [Compound 6aea, 6-(1-methyl-1H-pyrazol-4-yl)-N-(3-morpholinopropyl)-9H-pyrimido[4,5-b]indole-4-amine], the IC50 is 1530 nM and the inhibition at 1 µM amounted to 34%.

With `Cn1cc(-c2ccc3[nH]c4ncnc(NCCN5CCN(C(=O)OC(C)(C)C)CC5)c4c3c2)cn1` [Compound 6afa, tert-butyl 4-(2-((6-(1-methyl-1H-pyrazol-4-yl)-9H-pyrimido[4,5-b]indol-4-yl)amino)ethyl)piperazine-1-carboxylate], half-maximal inhibition (IC50) was put at 1050 nM and the inhibition at 1 µM was determined as 36%.

Turning to `Cn1cc(-c2ccc3[nH]c4ncnc(NCCN5CCOCC5)c4c3c2)cn1` [Compound 6ada, 6-(1-methyl-1H-pyrazol-4-yl)-N-(2-morpholinoethyl)-9H-pyrimido[4,5-b]indole-4-amine], the IC50 was determined as 861 nM and the inhibition at 1 µM worked out at 53%.

In turn, `CCOC(=O)c1ccc2[nH]c3ncnc(Nc4ccc(OC)cc4)c3c2c1` [Compound 5bc, ethyl 4-((4-methoxyphenyl)amino)-9H-pyrimido[4,5-b]indole-6-carboxylate] yielded an inhibition at 1 µM of 9%.

In the case of `Cc1nnc(-c2ccc3[nH]c4ncnc(N[C@H]5CC[C@H](N6CCOCC6)CC5)c4c3c2)o1` [Compound 6bae, 6-(5-methyl-1,3,4-oxadiazol-2-yl)-N-(trans-4-morpholinocyclohexyl)-9H-pyrimido[4,5-b]indole-4-amine], the IC50 was determined as 8 nM and the inhibition at 1 µM came out at 94%.

`Cn1cc(-c2ccc3[nH]c4ncnc(OCCN5CCOCC5)c4c3c2)cn1` [Compound 6aha, 4-(2-((6-(1-methyl-1H-pyrazol-4-yl)-9H-pyrimido[4,5-b]indol-4-yl)oxy)ethyl)morpholine] displayed a half-maximal inhibitory concentration (IC50) of 1040 nM and an inhibition at 1 µM of 41%.

Molecule `CS(=O)(=O)N1CCC(n2cc(-c3ccc4[nH]c5ncnc(N[C@H]6CC[C@H](N7CCOCC7)CC6)c5c4c3)cn2)CC1` [Compound 6aas, 6-(1-(1-(methylsulfonyl)piperidin-4-yl)-1H-pyrazol-4-yl)-N-(trans-4-morpholinocyclohexyl)-9H-pyrimido[4,5-b]indole-4-amine] had an IC50 of 50 nM and an inhibition at 1 µM of 79%.

In the case of `CC(C)(C)OC(=O)N1CCC(n2cc(-c3ccc4[nH]c5ncnc(N[C@H]6CC[C@H](N7CCOCC7)CC6)c5c4c3)cn2)CC1` [Compound 6aaq, tert-butyl 4-(4-(4-((trans-4-morpholinocyclohexyl)amino)-9H-pyrimido[4,5-b]indol-6-yl)-1H-pyrazol-1-yl)piperidine-1-carboxylate], the IC50 was 565 nM and at 1 µM the inhibition was 59%.

`Cc1nnc(-c2ccc3[nH]c4ncnc(N[C@H]5CC[C@H](N6CCOCC6)CC5)c4c3c2)[nH]1` [Compound 6bab, 6-(5-methyl-4H-1,2,4-triazol-3-yl)-N-(trans-4-morpholinocyclohexyl)-9H-pyrimido[4,5-b]indole-4-amine] registered an IC50 of 210 nM and an inhibition at 1 µM of 86%.

`c1nc(N[C@H]2CC[C@H](N3CCOCC3)CC2)c2c(n1)[nH]c1ccc(-c3cnn(C4CCNCC4)c3)cc12` [Compound 6aar, N-(trans-4-morpholinocyclohexyl)-6-(1-(piperidin-4-yl)-1H-pyrazol-4-yl)-9H-pyrimido[4,5-b]indole-4-amine] displayed an IC50 of 137 nM and an inhibition at 1 µM of 78%.

The molecule `COC(=O)c1ccc2c(c1)[nH]c1ncnc(Nc3ccc(N4CCOCC4)cc3)c12` [Compound 5db, methyl 4-((4-morpholinophenyl)amino)-9H-pyrimido[4,5-b]indole-7-carboxylate] displayed an inhibition at 1 µM of under 1%.

Consider `Fc1cncc(-c2ccc3[nH]c4ncnc(N[C@H]5CC[C@H](N6CCOCC6)CC5)c4c3n2)c1` [Compound 23a, 6-(5-fluoropyridin-3-yl)-N-(trans-4-morpholinocyclohexyl)-9H-pyrido[2′,3′:4,5]pyrrolo[2,3-d]pyrimidin-4-amine], for which the concentration for half-maximal inhibition (IC50) was 79 nM and the inhibition at 1 µM was determined as 91%.
